The structures appear in SMILES notation.

For the assay, the system named is α-SMA. Description: α-SMA expression inhibitory ability in MRC5 cell line (Western blotting). The following applies: TGF-β1 (10 ng/mL), 72 hours, relative to TGF-β1 only. In kind it is cell-based. The method, boiled down:
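MRC5 cells given compound at 10 μM, then TGF-β1 (10 ng/mL) 2 h later; after 72 h, lysates probed for α-SMA by Western blot. Inhibition is α-SMA level relative to TGF-β1 alone, binned A ≥70%, B 50–<70%, C <50%.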
By inhibition is commonly meant the share of the control response that was lost under treatment. Read a low inhibition as a weak effect. The molecule `CN1CCN(CCC(=O)N2CCN(Cc3ccccc3Cl)c3ccccc32)CC1` [Compound 89, 1-(4-(2-chlorobenzyl)-3,4-dihydroquinoxaline-1(2H)-yl)-3-(4-methylpiperazin-1-yl)propan-1-one] gave an inhibition at 10 µM of 50 to 70%.

`C[C@@H]1CCCCN1CCC(=O)N1CCN(c2ccc(F)cc2)c2cc(F)ccc21` [Compound 41, (R)-1-(6-fluoro-4-(4-fluorophenyl)-3,4-dihydroquinoxaline-1(2H)-yl)-3-(2-methylpiperidin-1-yl)propan-1-one] showed an inhibition at 10 µM of under 50%.

In the case of `O=C(CCN1CC[C@H](O)C1)N1CCN(c2ccc(F)cc2)c2cc(F)ccc21` [Compound 44, (S)-1-(6-fluoro-4-(4-fluorophenyl)-3,4-dihydroquinoxaline-1(2H)-yl)-3-(3-hydroxypyrrolidin-1-yl)propan-1-one], the inhibition at 10 µM is at least 70%.

With `CC(C(=O)N1CCN(c2ccc(F)cc2)c2cc(F)ccc21)N1CCCC1` (stereo not drawn) [Compound 51, 1-(6-fluoro-4-(4-fluorophenyl)-3,4-dihydroquinoxaline-1(2H)-yl)-2-(pyrrolidin-1-yl)propan-1-one], the inhibition at 10 µM was at least 70%.

In the case of `CC(C)CN1CCN(C(=O)CN2CCCCC2)c2ccccc21` [Compound 175, 1-(4-isobutyl-3,4-dihydroquinoxaline-1(2H)-yl)-2-(piperidin-1-yl)ethan-1-one], the inhibition at 10 µM was under 50%.

In the case of `CC(NC1CCN(C)C1)C(=O)N1CCN(c2ccccc2)c2ccccc21` (stereo not drawn) [Compound 65, 2-((1-methylpyrrolidin-3-yl)amino)-1-(4-phenyl-3,4-dihydroquinoxaline-1(2H)-yl)propan-1-one], the inhibition at 10 µM is under 50%.

`O=C(CCN1CCCC1)N1CCN(c2ccncc2)c2ccccc21` [Compound 158, 1-(4-(pyridin-4-yl)-3,4-dihydroquinoxaline-1(2H)-yl)-3-(pyrrolidin-1-yl)propan-1-one] registered an inhibition at 10 µM of under 50%.

As for `CN1CCN(CCC(=O)N2CCN(Cc3cccnc3)c3ccccc32)CC1` [Compound 121, 3-(4-methylpiperazin-1-yl)-1-(4-(pyridin-3-ylmethyl)-3,4-dihydroquinoxaline-1(2H)-yl)propan-1-one], the inhibition at 10 µM was under 50%.

Molecule `O=C(CCN1CCCC1)N1CCN(Cc2ccccn2)c2ccccc21` [Compound 114, 1-(4-(pyridin-2-ylmethyl)-3,4-dihydroquinoxaline-1(2H)-yl)-3-(pyrrolidin-1-yl)propan-1-one di-oxalate] displayed an inhibition at 10 µM of 50 to 70%.

Molecule `O=C(CCN1CCCC1)N1CCN(c2ccccn2)c2ccccc21` [Compound 146] yielded an inhibition at 10 µM of under 50%.

Molecule `CN1CC[C@@H](NCCC(=O)N2CCN(c3ccc(F)cc3)c3ccccc32)C1` [Compound 26, (R)-1-(4-(4-fluorophenyl)-3,4-dihydroquinoxaline-1(2H)-yl)-3-((1-methylpyrrolidin-3-yl)amino)propan-1-one] returned an inhibition at 10 µM of at least 70%.

On to `O=C(CCN1CCNCC1)N1CCN(c2ccc(F)cc2)c2ccccc21` [Compound 28, 1-(4-(4-fluorophenyl)-3,4-dihydroquinoxaline-1(2H)-yl)-3-(piperazin-1-yl)propan-1-one], for which the inhibition at 10 µM was at least 70%.

In the case of `O=C(CN1CCN(c2ccccc2)c2ccccc21)N1CCN2CCCC2C1` (stereo not drawn) [Compound 75], the inhibition at 10 µM lay within 50 to 70%.

In turn, `C[C@@H]1CCCCN1C(=O)CN1CCN(c2ccccc2)c2ccccc21` [Compound 70, (R)-1-(2-methylpiperidin-1-yl)-2-(4-phenyl-3,4-dihydroquinoxaline-1(2H)-yl)ethan-1-one] returned an inhibition at 10 µM of 50 to 70%.

With `C[C@@H]1CCCCN1CCC(=O)N1CCN(c2ccccc2)c2cc(F)ccc21` [Compound 6, (R)-1-(6-fluoro-4-phenyl-3,4-dihydroquinoxaline-1(2H)-yl)-3-(2-methylpiperidin-1-yl)propan-1-one], the inhibition at 10 µM lay in the range of 50 to 70%.

For `CN1CCN(CC(=O)N2CCN(Cc3ccccn3)c3ccccc32)CC1` [Compound 118, 2-(4-methylpiperazin-1-yl)-1-(4-(pyridin-2-ylmethyl)-3,4-dihydroquinoxaline-1(2H)-yl)ethan-1-one], the inhibition at 10 µM was under 50%.

For the molecule `CC(C(=O)N1CCN(c2ccc(Cl)cc2)c2ccccc21)N1CCN(C)CC1` (stereo not drawn) [Compound 145, 1-(4-(4-chlorophenyl)-3,4-dihydroquinoxaline-1(2H)-yl)-2-(4-methylpiperazin-1-yl)propan-1-one], the inhibition at 10 µM was at least 70%.

`O=C(CN1CCCC1)N1CCN(C(=O)c2ccccc2)c2ccccc21` [Compound 202, 1-(4-benzoyl-3,4-dihydroquinoxaline-1(2H)-yl)-2-(pyrrolidin-1-yl)ethan-1-one] showed an inhibition at 10 µM of under 50%.

In turn, `CN1CCN(CCCN2CCN(c3ccc(F)cc3)c3ccccc32)CC1` [Compound 30, 1-(4-fluorophenyl)-4-(3-(4-methylpiperazin-1-yl)propyl)-1,2,3,4-tetrahydroquinoxaline] gave an inhibition at 10 µM of at least 70%.

Molecule `O=C(CCN1CCN(C2CC2)CC1)N1CCN(c2ccc(F)cc2)c2cc(F)ccc21` [Compound 43, 3-(4-cyclopropylpiperazin-1-yl)-1-(6-fluoro-4-(4-fluorophenyl)-3,4-dihydroquinoxaline-1(2H)-yl)propan-1-one] displayed an inhibition at 10 µM of under 50%.

In turn, `CC1CCCN1CCC(=O)N1CCN(c2ccc(F)cc2)c2cc(F)ccc21` (stereo in doubt) [Compound 40, (R)-1-(6-fluoro-4-(4-fluorophenyl)-3,4-dihydroquinoxaline-1(2H)-yl)-3-(2-methylpyrrolidin-1-yl)propan-1-one] yielded an inhibition at 10 µM of under 50%.

`CC(C)CN1CCN(C(=O)CCN2CCN(C)CC2)c2ccccc21` [Compound 170, 1-(4-isobutyl-3,4-dihydroquinoxaline-1(2H)-yl)-3-(4-methylpiperazin-1-yl)propan-1-one di L-tartrate] yielded an inhibition at 10 µM of 50 to 70%.

In the case of `O=C(CCN1CCCCC1)N1CCN(c2ccncc2)c2ccccc21` [Compound 159, 3-(piperidin-1-yl)-1-(4-(pyridin-4-yl)-3,4-dihydroquinoxaline-1(2H)-yl)propan-1-one], the inhibition at 10 µM is under 50%.

In turn, `CC(C(=O)N1CCN(c2ccccc2Cl)c2ccccc21)N1CCN(C)CC1` (stereo not drawn) [Compound 130, 1-(4-(2-chlorophenyl)-3,4-dihydroquinoxaline-1(2H)-yl)-2-(4-methylpiperazin-1-yl)propan-1-one] showed an inhibition at 10 µM of 50 to 70%.

Take `O=C(CCc1cnc[nH]1)N1CCN(c2ccc(F)cc2)c2ccccc21` [Compound 29, 1-(4-(4-fluorophenyl)-3,4-dihydroquinoxaline-1(2H)-yl)-3-(1H-imidazol-5-yl)propan-1-one]: the inhibition at 10 µM was at least 70%.

Take `CC(C(=O)N1CCN(Cc2cccc(Cl)c2)c2ccccc21)N1CCCCC1` (stereo not drawn) [Compound 100, 1-(4-(3-chlorobenzyl)-3,4-dihydroquinoxaline-1(2H)-yl)-2-(piperidin-1-yl)propan-1-one]: the inhibition at 10 µM is at least 70%.

`O=C(CCN1CCN2CCCC2C1)N1CCN(c2ccc(F)cc2)c2cc(F)ccc21` (stereo not drawn) [Compound 42, 1-(6-fluoro-4-(4-fluorophenyl)-3,4-dihydroquinoxaline-1(2H)-yl)-3-(hexahydropyrrolo[1,2-a]pyrazin-2(1H)-yl)propan-1-one] displayed an inhibition at 10 µM of under 50%.

Values taken from patent publication US20250002464A1, “NOVEL COMPOUND AND PHARMACEUTICAL COMPOSITION COMPRISING SAME” (SAPIENSBIO INC., priority 2021, published 2025).
